The values below come from article PMC11472313, “Development of Fragment-Based Inhibitors of the Bacterial Deacetylase LpxC with Low Nanomolar Activity” (Journal of Medicinal Chemistry, 2024).

The series can be described thus: kinetic turbidimetric solubility. The format is physicochemical. To be noted: PBS with 1% DMSO, Kinetic solubility (1% DMSO/PBS). The method, then: The desired compounds were sequentially diluted in DMSO in a 96-well plate. 1.5 μL from each well was transferred into another 96-well plate and mixed with 148.5 μL of PBS. Plates were shaken for 5 min at 600 rpm at room temperature, and the absorbance at 620 nm was measured. Absorbance values were normalized by blank subtraction and plotted using GraphPad Prism 8.4.2 (GraphPad Software, San Diego, CA, USA). Solubility (S) was determined based on the First X value of AUC function using a threshold of 0.005.

Molecules are shown by their SMILES. In brackets after ≈: the same amount, converted by molar mass.

`O=C(NC[C@H](OCc1ccc(C#Cc2ccc(CN3CCOCC3)cc2)cc1)C(=O)NO)c1c[nH]c2ccccc12` [(S)-13h]: the kinetic solubility at 5 min was 53.5 ± 1.9 µM (≈ 29.6 µg/mL).
With `O=C(NC[C@H](OCc1ccc(C#Cc2ccc(CN3CCOCC3)cc2)cc1)C(=O)NO)c1ccc2[nH]ccc2c1` [(S)-13j], the kinetic solubility at 5 min amounted to 46 ± 11 µM (≈ 25.4 µg/mL).
Turning to `O=C(NC[C@H](OCc1ccc(C#Cc2ccc(CN3CCOCC3)cc2)cc1)C(=O)NO)c1cc[nH]n1` [(S)-13l], the kinetic solubility at 5 min is at least 100 µM.
